Assay results published in ChEMBL document CHEMBL1128778 (Bioorg Med Chem Lett, 1995).

Columns and labels:
Squalene synthase = biological target: T1, Squalene synthase (Rattus norvegicus, UniProt Q02769); experiment: Inhibitory activity against squalene synthase in rat liver; not active
T1 sequence (Q02769 whole entry): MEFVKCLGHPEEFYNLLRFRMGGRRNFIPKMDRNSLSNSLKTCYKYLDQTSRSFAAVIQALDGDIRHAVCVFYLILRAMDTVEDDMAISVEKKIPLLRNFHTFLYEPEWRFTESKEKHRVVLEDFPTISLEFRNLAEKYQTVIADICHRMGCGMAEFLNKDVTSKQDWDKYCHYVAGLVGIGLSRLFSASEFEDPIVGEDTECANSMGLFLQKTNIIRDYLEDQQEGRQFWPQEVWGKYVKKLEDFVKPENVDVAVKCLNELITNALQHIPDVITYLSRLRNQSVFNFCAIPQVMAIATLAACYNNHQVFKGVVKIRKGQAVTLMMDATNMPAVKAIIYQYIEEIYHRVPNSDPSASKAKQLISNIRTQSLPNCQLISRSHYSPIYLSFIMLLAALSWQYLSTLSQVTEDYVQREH

Mus musculus [1] = species: Mus musculus; experiment: Compound was evaluated for its effective dose in the oral mouse cholesterol biosynthesis assay.; type: functional
Rattus norvegicus = species: Rattus norvegicus; experiment: Dose required for inhibition of cholesterol biosynthesis in rats was determined; type: functional
Mus musculus [2] = experiment: Ability to inhibit mouse hepatic cholesterol biosynthesis when dosed orally at 6 mg/kg; type: functional; settings: route oral
Mus musculus [3] = experiment: Ability to inhibit mouse hepatic cholesterol biosynthesis when dosed orally at 24 mg/kg; type: functional; settings: route oral
Mus musculus [4] = experiment: Ability to inhibit mouse hepatic cholesterol biosynthesis when dosed orally at 12 mg/kg; type: functional; settings: route oral
[5] = Mus musculus, po, read-out: ED50

Ki (Squalene synthase)	SMILES	ED50 (Mus musculus [1]; [5]) [mg/kg]	other results
Not Active	C=C(CCC12OC(C(=O)OCCC)C(O)(C(=O)OCOC(=O)C(C)(C)C)C(C(=O)O)(O1)[C@H](OC(=O)/C=C/[C@@H](C)C[C@@H](C)CC)[C@H]2O)[C@@H](OC(C)=O)[C@H](C)Cc1ccccc1 (stereo partly drawn)	2	
Not Active	C=C(CCC12OC(C(=O)OC)C(O)(C(=O)OCOC(=O)C(C)(C)C)C(C(=O)O)(O1)[C@H](OC(=O)/C=C/[C@@H](C)C[C@@H](C)CC)[C@H]2O)[C@@H](OC(C)=O)[C@H](C)Cc1ccccc1 (stereo partly drawn)	3.3	
Not Active	C=C(CCC12OC(C(=O)OCC)C(O)(C(=O)OCOC(=O)C(C)(C)C)C(C(=O)O)(O1)[C@H](OC(=O)/C=C/[C@@H](C)C[C@@H](C)CC)[C@H]2O)[C@@H](OC(C)=O)[C@H](C)Cc1ccccc1 (stereo partly drawn)	2.6	ED50 (Rattus norvegicus): 18 mg/kg
Not Active	C=CCOC(=O)C1OC2(CCC(=C)[C@@H](OC(C)=O)[C@H](C)Cc3ccccc3)OC(C(=O)O)([C@H](OC(=O)/C=C/[C@@H](C)C[C@@H](C)CC)[C@H]2O)C1(O)C(=O)OCOC(=O)C(C)(C)C (stereo partly drawn)	2	
Not Active	C=C(CCC12OC(C(=O)OC(C)C)C(O)(C(=O)OCOC(=O)C(C)(C)C)C(C(=O)O)(O1)[C@H](OC(=O)/C=C/[C@@H](C)C[C@@H](C)CC)[C@H]2O)[C@@H](OC(C)=O)[C@H](C)Cc1ccccc1 (stereo partly drawn)	4	
Not Active	C=C(CCC12OC(C(=O)OCCC(C)C)C(O)(C(=O)OCOC(=O)C(C)(C)C)C(C(=O)O)(O1)[C@H](OC(=O)/C=C/[C@@H](C)C[C@@H](C)CC)[C@H]2O)[C@@H](OC(C)=O)[C@H](C)Cc1ccccc1 (stereo partly drawn)	9	ED50 (Mus musculus [1]): 9 mg/kg
Not Active	C=C(CCC12OC(C(=O)OCCCC)C(O)(C(=O)OCOC(=O)C(C)(C)C)C(C(=O)O)(O1)[C@H](OC(=O)/C=C/[C@@H](C)C[C@@H](C)CC)[C@H]2O)[C@@H](OC(C)=O)[C@H](C)Cc1ccccc1 (stereo partly drawn)		inhibition in vivo at 6 mg/kg (Mus musculus [2]): 18%
Not Active	C=C(CCC12OC(C(=O)OCC(=O)OC)C(O)(C(=O)OCOC(=O)C(C)(C)C)C(C(=O)O)(O1)[C@H](OC(=O)/C=C/[C@@H](C)C[C@@H](C)CC)[C@H]2O)[C@@H](OC(C)=O)[C@H](C)Cc1ccccc1 (stereo partly drawn)		inhibition in vivo at 6 mg/kg (Mus musculus [2]): 0%
Not Active	C=C(CCC12OC(C(=O)OCCOC)C(O)(C(=O)OCOC(=O)C(C)(C)C)C(C(=O)O)(O1)[C@H](OC(=O)/C=C/[C@@H](C)C[C@@H](C)CC)[C@H]2O)[C@@H](OC(C)=O)[C@H](C)Cc1ccccc1 (stereo partly drawn)		inhibition in vivo at 6 mg/kg (Mus musculus [2]): 18%
	C=C(CCC12OC(C(=O)OCCC(C)C)C(O)(C(=O)OCOC(C)=O)C(C(=O)O)(O1)[C@H](OC(=O)/C=C/[C@@H](C)C[C@@H](C)CC)[C@H]2O)[C@@H](OC(C)=O)[C@H](C)Cc1ccccc1 (stereo partly drawn)	6	
	C=C(CCC12OC(C(=O)O)C(O)(C(=O)OCOC(=O)C(C)(C)C)C(C(=O)O)(O1)[C@H](OC(=O)/C=C/[C@@H](C)C[C@@H](C)CC)[C@H]2O)[C@@H](OC(C)=O)[C@H](C)Cc1ccccc1 (stereo partly drawn)		inhibition in vivo at 24 mg/kg (Mus musculus [3]): 0%
	C=C(CCC12OC(C(=O)NC(C)C)C(O)(C(=O)OCOC(=O)C(C)(C)C)C(C(=O)O)(O1)[C@H](OC(=O)/C=C/[C@@H](C)C[C@@H](C)CC)[C@H]2O)[C@@H](OC(C)=O)[C@H](C)Cc1ccccc1 (stereo partly drawn)		inhibition in vivo at 24 mg/kg (Mus musculus [3]): 41%
Not Active	C=C(CCC12OC(C(=O)NCCOC)C(O)(C(=O)OCOC(=O)C(C)(C)C)C(C(=O)O)(O1)[C@H](OC(=O)/C=C/[C@@H](C)C[C@@H](C)CC)[C@H]2O)[C@@H](OC(C)=O)[C@H](C)Cc1ccccc1 (stereo partly drawn)		inhibition in vivo at 12 mg/kg (Mus musculus [4]): 18%
Not Active	C=C(CCC12OC(C(=O)OCC(=O)OC(C)(C)C)C(O)(C(=O)OCOC(=O)C(C)(C)C)C(C(=O)O)(O1)[C@H](OC(=O)/C=C/[C@@H](C)C[C@@H](C)CC)[C@H]2O)[C@@H](OC(C)=O)[C@H](C)Cc1ccccc1 (stereo partly drawn)		inhibition in vivo at 24 mg/kg (Mus musculus [3]): 45%
	C=C(CCC12OC(C(=O)O)C(O)(C(=O)O)C(C(=O)O)(O1)[C@H](OC(=O)/C=C/[C@@H](C)C[C@@H](C)CC)[C@H]2O)[C@@H](OC(C)=O)[C@H](C)Cc1ccccc1 (stereo partly drawn) [ZARAGOZIC ACID A]	100	
